Reference: US20230159510A1, “NOVEL PRMT5 INHIBITORS” (AMGEN INC., priority 2020, published 2023)

How the values were obtained:
[1] = tested on: HCT116 MTAP null cells; test: HCT116 proliferation assay, MTAP null cells (CellTiter-Glo, 6 days); assay type: cell-based; settings: HCT116-MTAP null, 144 h, read-out: Protif_ HCT116-MTAP null IC50
Outline: (§1)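 Both lines grow in RPMI 1640 containing 10% fetal bovine serum. After an overnight rest, they receive compound at up to 1 or 10 µM in threefold serial dilutions, with vehicle wells holding DMSO only.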

[2] = tested on: HCT116 WT cells; test: HCT116 proliferation assay, WT cells (CellTiter-Glo, 6 days); assay type: cell-based; settings: Homo sapiens, HCT-116, 144 h, read-out: Prolif_HCT116-WT IC50
Outline: as §1

[3] = biological target: PRMT5/MEP50 (Homo sapiens, UniProt O14744); test: MTase-Glo methyl transferase assay, Method A (Histone H4 peptide, 1 µM MTA, 24 h pre-incubation); assay type: biochemical; design: made in house; settings: read-out: PRMT5 MTase Glo Ki (nM, Meth. A)
Outline: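 PRMT5/MEP50 (10 nM) pre-incubated 24 h with compound, 5 µM SAM and 1 µM MTA, then reaction started with 1 µM Histone H4 (1-21) peptide and run 2 h at room temperature in Tris pH 8.0 buffer. SAH formed detected by MTase-Glo luminescence; IC50 and KI from dose-response curves.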

PRMT5/MEP50, sequence (O14744 whole entry): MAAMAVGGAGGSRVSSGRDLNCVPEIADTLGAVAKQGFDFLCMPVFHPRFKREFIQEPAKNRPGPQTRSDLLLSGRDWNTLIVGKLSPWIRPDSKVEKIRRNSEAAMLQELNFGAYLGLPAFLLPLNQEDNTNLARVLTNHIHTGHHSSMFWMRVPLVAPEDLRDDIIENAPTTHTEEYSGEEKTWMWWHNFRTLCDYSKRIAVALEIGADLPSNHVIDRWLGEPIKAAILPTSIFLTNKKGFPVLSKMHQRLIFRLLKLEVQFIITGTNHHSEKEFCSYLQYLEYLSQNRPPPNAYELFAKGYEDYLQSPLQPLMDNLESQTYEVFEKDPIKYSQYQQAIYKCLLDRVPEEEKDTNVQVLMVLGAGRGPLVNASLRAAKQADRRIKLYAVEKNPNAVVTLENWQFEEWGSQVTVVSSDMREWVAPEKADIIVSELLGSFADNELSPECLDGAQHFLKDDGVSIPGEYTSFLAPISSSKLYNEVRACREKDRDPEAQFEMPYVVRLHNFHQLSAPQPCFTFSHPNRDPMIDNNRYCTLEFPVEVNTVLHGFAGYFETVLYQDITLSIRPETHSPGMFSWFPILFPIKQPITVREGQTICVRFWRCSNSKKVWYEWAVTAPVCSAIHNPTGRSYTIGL
PRMT5/MEP50, sequence (Q9BQA1 whole entry partner): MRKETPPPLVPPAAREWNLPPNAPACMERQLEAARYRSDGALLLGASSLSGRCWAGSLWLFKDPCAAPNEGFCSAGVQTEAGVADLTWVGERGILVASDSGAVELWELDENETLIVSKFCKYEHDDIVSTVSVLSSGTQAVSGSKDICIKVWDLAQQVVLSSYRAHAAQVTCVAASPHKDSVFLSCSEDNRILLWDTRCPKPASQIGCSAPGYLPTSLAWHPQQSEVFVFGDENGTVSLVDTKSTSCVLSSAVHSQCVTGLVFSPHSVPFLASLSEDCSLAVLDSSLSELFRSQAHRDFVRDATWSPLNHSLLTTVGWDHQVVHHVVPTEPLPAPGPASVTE

Structure (SMILES) | IC50 [1] [nM] | IC50 [2] [nM] | Ki [3] [nM]
Cc1cc2cc(C(=O)N(Cc3ccc(C(F)(F)F)cn3)[C@@H]3CCCc4ccncc43)ccc2nc1N [Example 323, 2-amino-3-methyl-N-((8R)-5,6,7,8-tetrahydro-8-isoquinolinyl)-N-((5-(trifluoromethyl)-2-pyridinyl)methyl)-6-quinolinecarboxamide] | 159 | 5010 | 0.36
Cc1cc2cc(C(=O)N(Cc3ccc(C(F)(F)F)cn3)Cc3ncccc3F)cnc2nc1N [Example 537, 7-amino-N-((3-fluoropyridin-2-yl)methyl)-6-methyl-N-((5-(trifluoromethyl)pyridin-2-yl)methyl)-1,8-naphthyridine-3-carboxamide] | 701 | 5960 | 0.51
Cc1cc2cc(C(=O)N(Cc3ccc(C#N)cn3)Cc3ncccc3F)ccc2nc1N [Example 327, 2-amino-N-((5-cyano-2-pyridinyl)methyl)-N-((3-fluoro-2-pyridinyl)methyl)-3-methyl-6-quinolinecarboxamide] | 304 | 8640 | 0.35
Cc1cc2cc(C(=O)N(Cc3ccc(C(F)(F)F)cn3)[C@H](C)c3ncccc3F)cnc2nc1N [Example 389, 7-amino-N-((1R)-1-(3-fluoro-2-pyridinyl)ethyl)-6-methyl-N-((5-(trifluoromethyl)-2-pyridinyl)methyl)-1,8-naphthyridine-3-carboxamide] | 198 | > 10000 | 0.37
C[C@H](c1ncccc1F)N(Cc1ccc(C#N)cn1)C(=O)c1ccc2nc(N)c(Cl)cc2c1 [Example 351, 2-amino-3-chloro-N-((5-cyano-2-pyridinyl)methyl)-N-((1R)-1-(3-fluoro-2-pyridinyl)ethyl)-6-quinolinecarboxamide] | 824 | > 10000 | 1.29
Cc1cc2cc(C(=O)N(Cc3ncc(C(F)(F)F)cc3F)[C@H](C)c3ncccc3F)ccc2nc1N [Example 391, 2-amino-N-((1R)-1-(3-fluoro-2-pyridinyl)ethyl)-N-((3-fluoro-5-(trifluoromethyl)-2-pyridinyl)methyl)-3-methyl-6-quinolinecarboxamide] | 165 | 4800 | 0.01
Cc1cc2cc(C(=O)N(Cc3ccc(C(F)(F)F)nc3)[C@H](C)c3ncccn3)ccc2nc1N (single isomer, unassigned) [Example 477] | 195 | 5640 | 0.11
CCOc1ccc(CN(C(=O)c2cnc3nc(N)c(Br)cc3c2)[C@H](C)c2ncccn2)nn1 [Example 382, 7-amino-6-bromo-N-((6-ethoxy-3-pyridazinyl)methyl)-N-((1R)-1-(2-pyrimidinyl)ethyl)-1,8-naphthyridine-3-carboxamide] | 278 | 9680 | 0.16
Cc1cc2cc(C(=O)N(Cc3ccc(Cl)cn3)CC(C)C)ccc2nc1N [Example 330, 2-amino-N-((5-chloro-2-pyridinyl)methyl)-3-methyl-N-(2-methylpropyl)-6-quinolinecarboxamide] | 628 | 8570 | 1.87
Cc1cc2cc(C(=O)N(Cc3cnc(C(F)(F)F)cn3)[C@H](C)c3ncccn3)ccc2nc1N (single isomer, unassigned) [Example 449] | 168 | 5900 | 0.27
Cc1cc2cc(C(=O)N(Cc3ccc(C(F)F)cn3)[C@H](C)c3ncccn3)cnc2nc1N [Example 409, 7-amino-N-((5-(difluoromethyl)-2-pyridinyl)methyl)-6-methyl-N-((1R)-1-(2-pyrimidinyl)ethyl)-1,8-naphthyridine-3-carboxamide] | 692 | > 10000 | 0.24
Cc1cc2cc(C(=O)N(Cc3ccc(Br)nn3)[C@@H]3CCCn4ncnc43)ccc2nc1N [Example 416, 2-amino-N-((6-bromo-3-pyridazinyl)methyl)-3-methyl-N-((8R)-5,6,7,8-tetrahydro[1,2,4]triazolo[1,5-a]pyridin-8-yl)-6-quinolinecarboxamide] | 262 | 6650 | 0.17
Cc1cc2cc(C(=O)N(Cc3ccc(C#N)cn3)[C@H](C)c3ccccn3)ccc2nc1N (single isomer, unassigned) [Example 473] | 302 | 5110 | 0.17
Cc1cc2cc(C(=O)N(Cc3ccc(C(F)(F)F)nn3)[C@@H]3CCC[C@H]3O)ccc2nc1N [Example 363, 2-amino-N-((1R,2R)-2-hydroxycyclopentyl)-3-methyl-N-((6-(trifluoromethyl)pyridazin-3-yl)methyl)quinoline-6-carboxamide] | 326 | 7160 | 0.2

The next molecules have a lower IC50 [1] than those just listed; values first:

IC50 [1] [nM] | IC50 [2] [nM] | Ki [3] [nM] | Structure (SMILES)
38 | 1300 | 0.08 | Cc1cc2cc(C(=O)N(Cc3ccc(C4=CCCOC4)cn3)[C@H](C)c3ncccn3)ccc2nc1N [Example 558, 2-amino-N-((5-(5,6-dihydro-2H-pyran-3-yl)-2-pyridinyl)methyl)-3-methyl-N-((1R)-1-(2-pyrimidinyl)ethyl)-6-quinolinecarboxamide]
88 | 3270 | 0.04 | Cc1cc2cc(C(=O)N(Cc3ncc(Br)cc3C)[C@H](C)c3ncccn3)ccc2nc1N (single isomer, unassigned) [Example 474]
101 | 3110 | 0.11 | Cc1cc2cc(C(=O)N(Cc3ccc(C(F)(F)F)cn3)[C@@H]3COCC[C@@H]3O)ccc2nc1N (single isomer, unassigned) [Example 471]
61 | 2560 | 0.07 | CCOc1ccc(CN(C(=O)c2ccc3nc(N)c(C)cc3c2)[C@H](C)c2ncccn2)nn1 [Example 377, 2-amino-N-((6-ethoxy-3-pyridazinyl)methyl)-3-methyl-N-((1R)-1-(2-pyrimidinyl)ethyl)-6-quinolinecarboxamide]
123 | 4050 | 0.18 | C[C@H](c1ncccn1)N(Cc1ccc(Cl)cn1)C(=O)c1ccc2nc(N)c(Br)cc2c1 [Example 412, 2-amino-3-bromo-N-((5-chloro-2-pyridinyl)methyl)-N-((1R)-1-(2-pyrimidinyl)ethyl)-6-quinolinecarboxamide]
106 | 2460 | 0.11 | Cc1cc2cc(C(=O)N(Cc3ccc(C(F)(F)F)cn3)[C@@H]3CCC[C@H]3O)ccc2nc1N [Example 362, 2-amino-N-((1R,2R)-2-hydroxycyclopentyl)-3-methyl-N-((5-(trifluoromethyl)-2-pyridinyl)methyl)-6-quinolinecarboxamide]
21 | 723 | 0.08 | C[C@H](c1ncccn1)N(Cc1ccc(C(F)(F)F)cn1)C(=O)c1ccc2nc(N)c(I)cc2c1 (single isomer, unassigned) [Example 544]
60 | 1220 | 0.09 | COc1ccc(CN(C(=O)c2cc3cc(C)c(N)nc3cc2F)[C@H](C)c2ncccn2)nn1 (single isomer, unassigned) [Example 479]
36 | 848 | 0.02 | Cc1cc2cc(C(=O)N(Cc3ccc(Br)nn3)[C@H](C)c3ncccn3)c(F)cc2nc1N [Example 349, 2-amino-N-((6-bromo-3-pyridazinyl)methyl)-7-fluoro-3-methyl-N-((1R)-1-(2-pyrimidinyl)ethyl)-6-quinolinecarboxamide]
